The source of these data is patent publication US20260207628A1, “25-HYDROXY-CHOLEST-5-EN-3-SULFATE CHOLINE, FORMULATIONS THEREOF AND METHODS FOR PREPARING, AND USES OF SAME” (Durect Corporation, priority 2022, published 2026).

Read-outs that look alike come from different tables or passages of the source.

Data set [1] is described as follows: Dynamic vapor sorption (DVS), sorption/desorption 5% to 95% RH. The format is physicochemical. From the text:
Dynamic vapor sorption data was collected on a Surface Measurement System DVS Intrinsic instrument. The samples were not dried prior to analysis. […] Data were not corrected for the initial moisture content of the sample.

For data set [2] the following is noted: by angle of repose. How it is done:
Angle of repose is measured as follows. Powder is poured from a funnel onto a flat surface until a cone of powder is created. The angle of repose is calculated according to the following equation:
[formula] • Where: • h: height of the cone (mm) • r: radius of the cone (mm)
The height of the cone was estimated with calipers.

How the values of data set [3] were obtained: Four vials were prepared and stored at 2-8° C. or […] according to Table B2. The samples were scheduled initially to pull for testing at 3 weeks and 6 weeks time points.
For appearance, each unopened vial was visually examined for color, clumping, and flowability.
Samples were prepared by pipetting 20 mL of 100% methanol into each vial and mixing well, with sonication and vortexing to fully dissolve the samples for HPLC analysis.
HPLC analysis was performed.

The procedure of data set [4]: The aqueous solvents were water, 5% dextrose, 0.9% sodium chloride, Fasted State Simulated Intestinal Fluid (FaSSIF), Fed State Simulated Intestinal Fluid (FeSSIF) and Fasted State Simulated Gastric Fluid (FaSSGF). The organic solvents were methanol, ethanol, isopropanol and acetonitrile.
These fluids were prepared per the instruction listed by Biorelevant (Biorelevant.com). Each buffer concentrate was diluted with water and mixed well. FaSSIF, FeSSIF, FaSSGF powder was added to each buffer and mixed to completely dissolve the powder. Buffers were stored at room temperature and used within 48 hours of preparation.
Aliquots of each solvent were added to each sample and vortexed for about one minute until excess solid remained. Samples were placed on shaker at room temperature with 210 motion per minute shaking.
After one day, samples were pulled and checked if excess solid was present. About 1.5 mL aliquot of each sample was centrifuged at 12000 rpm for 12 to 15 minutes. […] Aliquots of the top clear solution of each centrifuged sample in MeOH, EtOH, IPA and ACN were diluted with diluent (water:MeOH 95:5) and assayed by HPLC.
A linear standard curve was constructed using standards with concentration between 11 μg/mL to 1.5 mg/mL as free acid forcing the curve to origin. Solubilities are reported as mg/mL free acid 25HC3S. Detection limit (LOD) of the HPLC method was calculated as 0.0007 mg/mL.
The source holds these as a separate data set.

The conditions of data set [5]: by compressibility index and Hausner ratio. As for the experimental part:
Although there are some variations in the method of determining the compressibility index and Hausner ratio, the basic procedure is to measure the unsettled apparent volume, VO, and the final tapped volume, Vf, of the powder after tapping the material until no further volume changes occur. The compressibility index and the Hausner ratio are calculated as follows: […]
Powder was carefully poured into a 5 mL glass graduated cylinder (to contain) until it was close to or at 5.0 mL. This initial volume was recorded as Vo. The graduated cylinder was tapped on a hard surface for 200 times and the volume was recorded. The cylinder was tapped 100 times more, and the final volume Vf was recorded.

The nature of data set [6]: Biorelevant drug release, USP Apparatus 2, 0-30 min FaSSGF then FaSSGF + double strength FaSSIF. It counts as physicochemical. The note with it: at 90 minutes, biorelevant media. How it is done:
Biorelevant media as used herein is a combination of 2 different media used at different times. The first is in FaSSGF which stands for Fasted-state simulated gastric fluid and is used for 30 minutes of drug release. Afterwards, drug release is measured with addition of double strength FaSSIF which is Fasted-state simulated intestinal fluid. A skilled artisan would understand that the double strength FaSSIF is added at 30 minutes.
As used herein, the biorelevant drug release was conducted using a USP Apparatus 2 with (1) 0-30 minutes in 450 mL FaSSGF; and (2) 30-90 minutes FaSSGF+double strength FaSSIF in a total of 900 mL of media with pH adjusted to 6.5; with a paddle speed of 75 rpm (0-75 minutes) and 250 rpm (75-90 minutes) and a vessel temperature of 37° C.

For data set [7] the following is noted: after jet milling. As for the experimental part:
Crystalline 25HC3S was placed in a JAM-2-2002 mill under nitrogen and milled. The materials were then placed into product containers. Jet milling was conducted at a feed rate of 300 g/hour, with a venturi pressure of 50 psi and mill pressure of 120 psi of nitrogen. The target specification was set to having a Dv (90) of less than 10 microns.

Data set [8] in a line: Clinical study: safety and tolerability of oral doses of 25HC3S. The format is in vivo, healthy male and female subjects. The source says:
The secondary objective for both Parts 1 and 2 of the study was: • To provide information on the safety and tolerability of oral doses of 25HC3S in healthy subjects
The evaluation of safety parameters comprised analysis of adverse events, laboratory variables (hematology, clinical chemistry and urinalysis), vital signs, electrocardiograms (ECGs) and physical examination findings.

For `C[C@H](CCCC(C)(C)O)[C@H]1CC[C@H]2[C@@H]3CC=C4C[C@@H](OS(=O)(=O)[O-])CC[C@]4(C)[C@H]3CC[C@]12C.C[N+](C)(C)CCO` [25HC3S choline, 25-hydroxy-3β-cholesten-5-en-3-sulfate (25HC3S) choline], the “weight loss on the return to 5% relative humidity” value in data set [1] (DVS desorption 95% to 5% RH) is recorded as 0.5%. The “Flow Property per USP<1174> Powder Flow” value in data set [2] is given as “Good (31-35)”. Also, in data set [3] (2-8° C., 3 wk), the “% Impurities 25-HC (25-Hydroxy-Cholesterol)” value (from here on “% Impurities 25-HC”) is on record as 0.2%; the “% Impurities SD (Sulfate Desmosterol)” value was 0.4%; the “% Impurities Total” value is on record as 1.0%; the Appearance result was “White, free flowing powder with clumping”. The Assay in data set [3] (2-8° C., 3 wk) was 101.6 % w/w. Besides, in data set [3] (2-8° C., 5 wk), the “% Impurities 25-HC” value came out at 0.2%; the “% Impurities SD (Sulfate Desmosterol)” value was 0.3%; the “% Impurities Total” value is listed as 0.9%; the Appearance result is “White, free flowing powder with clumping”. The compound also came in with an Assay in data set [3] (2-8° C., 5 wk) of 108.1 % w/w. In addition, in data set [3] (80° C., 3 wk), the “% Impurities 25-HC” value came to 0.4%, the “% Impurities SD (Sulfate Desmosterol)” value is 0.4%, the “% Impurities Total” value was 1.2% and the “% Recovery of 2-8° C./3 wk VS 80° C../3 wk” value is listed as 100.8%. Further, in data set [3] (80° C., 3 wk), the Appearance result was “White, free flowing powder with clumping” and the Assay is given as 102.4 % w/w. For the same compound, in data set [3] (80° C., 5 wk), the “% Impurities 25-HC” value is on record as 0.2%, the “% Impurities SD (Sulfate Desmosterol)” value worked out at 0.8%, the “% Impurities Total” value is given as 2.2% and the “% Recovery of 2-8º C./5 wk VS 80° C./5 wk” value is 97.3%. In addition, in data set [3] (80° C., 5 wk), the Appearance entry is recorded as “White, free flowing powder with clumping” and the Assay amounted to 105.2 % w/w. For the same compound, in data set [4], the “Solubility in 0.9% Sodium Chloride” value is listed as “low solubility”, the “Solubility in 5% Dextrose” value was 0.093 mg/mL as Free Acid, the “Solubility in ACN” value worked out at 0.5 mg/mL as Free Acid and the “Solubility in EtOH” value was 3.4 mg/mL as Free Acid. In data set [4], the “Solubility in IPA” value is listed as 0.6 mg/mL as Free Acid, the “Solubility in MeOH” value amounted to 17.5 mg/mL as Free Acid and the “Solubility in Water” value is 0.107 mg/mL as Free Acid. Besides, the “Scale of Flowability per USP<1174> (Flow Character)” value in data set [5] is recorded as “Very, very poor (>38)”. The drug release in data set [6] is given as ~ 10%.
Consider `C[C@H](CCCC(C)(C)O)[C@H]1CC[C@H]2[C@@H]3CC=C4C[C@@H](OS(=O)(=O)[O-])CC[C@]4(C)[C@H]3CC[C@]12C.C[N+](C)(C)CCO` [Micronized 25HC3S choline], for which the “composite Dv (90)” value in data set [7] was 4 microns.
For `C[C@H](CCCC(C)(C)O)[C@H]1CCC2C3CC=C4C[C@@H](OS(=O)(=O)O)CC[C@]4(C)C3CC[C@@]21C` (stereo partly drawn) [Tablet 25HC3S, [(3S,10R,13R,17R)-17-[(1R)-5-hydroxy-1,5-dimethyl-hexyl]-10,13-dimethyl-2,3,4,7,8,9,11,12,14,15,16,17-dodecahydro-1H-cyclopenta[a]phenanthren-3-yl]sulfate], the “subjects reporting TEAEs, overall” value in data set [8] (16 subjects, all TEAEs mild, not related to IMP) is given as 2 (12.5%). For the same compound, the “serious or severe TEAEs or deaths” value in data set [8] (all regimens) is recorded as “No serious, severe treatment-emergent adverse events (TEAEs) or deaths were reported”. Besides, the tolerability entry in data set [8] (choline salt IR formulations up to 50 mg fed and fasted, sodium salt PiB and choline salt PiB 12.5 mg fasted) is “well tolerated”. The “total number of TEAEs” value in data set [8] (overall) was determined as 4.
With `C[C@H](CCCC(C)(C)O)[C@H]1CC[C@H]2[C@@H]3CC=C4C[C@@H](OS(=O)(=O)[O-])CC[C@]4(C)[C@H]3CC[C@]12C.[Na+]` [crystalline 25HC3S sodium, Sodium [(3S,10R,13R,17R)-17-[(1R)-5-hydroxy-1,5-dimethyl-hexyl]-10,13-dimethyl-2,3,4,7,8,9,11,12,14,15,16,17-dodecahydro-1H-cyclopenta[a]phenanthren-3-yl]sulfate, reference compound], the “water uptake (DVS isotherm, in words)” value in data set [1] (until about 95% relative humidity, batch containing Form I and Form II) is “significant water uptake”.
